Test results from paper PMC4057637, “Efficacy of novel antibacterial compounds targeting histidine kinase YycG protein” (Applied Microbiology and Biotechnology, 2014).

What was measured:
[1] = test system: S. epidermidis ATCC 35984; assay: Derivatives combined with vancomycin or cefazolin (FIC index); type: cell-based; conditions: S. epidermidis ATCC 35984
Excerpt: Combination antimicrobial therapy is widely used to take advantage of different mechanisms of action. It may potentiate the effect of individual antimicrobial agents by synergic action (Bijnsdorp et al. [2011]; Cokol et al. [2011]). The glycopeptide antibiotics, such as vancomycin, can bind the peptidoglycan side chains in the cell wall and prevent cross-linking during cell wall synthesis. Vancomycin has been considered to be one of the most reliable therapeutic agents against staphylococcal infections, but it is unable to clear biofilms even at high concentration (128 mg/l) (Climo et al. [1999]; Darouiche et al. [1994]; Tenover et al. [2001]). […] YycGF also plays an important role in the synthesis of peptidoglycan in B. subtilis and S. aureus (Bisicchia et al. [2007]; Dubrac and Msadek [2004]). In a preliminary study, we assessed the effects of the combined application of the derivatives with vancomycin and cefazolin against S. epidermidis ATCC 35984 according to the method of Odds ([2003]) (Cottagnoud et al. [2003]). […] No antagonism was observed between the derivatives and vancomycin or cefazolin (Table S1).
17 Table S1. The derivatives combined with vancomycin or cefazolin against S. epidermidis
Derivatives Antibiotics MIC (mg/L) FICIa Synergyb
Derivative Antibiotic In combination
alone alone (Derivative/Antibiotic)
19 a The FICI was calculated as FIC indexes= (MICderivative A in combination/MICderivative A
20 alone)+(MICantibiotic B in combination/MIC antibiotic B alone).
21 b The interaction between the two antibacterials is noted as follows: FIC index≤0.5,
22 Synergy (+); 0.5<FIC index≤4 (-), No interaction; FIC≥4.0, Antagonism.

[2] = test system: mature (24-h-old) biofilms of S. epidermidis ATCC 35984; assay: Bacterial viability in mature biofilms by CLSM with Live/Dead staining; type: cell-based; conditions: Staphylococcus epidermidis, ATCC35984, 16 h, read-out: proportion of viable cells in mature biofilms
Experimental: A diluted overnight culture of the bacteria was inoculated into cell culture glass bottom dishes (WPI, USA) and incubated at 37 °C for 24 h. […] The biofilms were washed with PBS and stained with SYTO9 and propidium iodide (PI), both of which were used at a concentration of 1 μM. SYTO9-stained live cells and PI-stained cells dead in biofilms were visualized by a Leica TCS SP5 confocal laser scanning microscope with a ×63 1.4-NA oil immersion objective. Three-dimensional biofilm images were created by IMARIS 7.0.0 software (Bitplane).

[3] = test system: 24-h biofilms of S. epidermidis ATCC 35984; assay: Rabbit subcutaneous S. epidermidis biofilm infection model; type: in vivo, New Zealand White rabbits; conditions: vancomycin 128 mg/l, local injection at 0, 24, 48 h; 72 h
Experimental: To test the effectiveness in vivo of H2-74 and H2-81, 24-h biofilms of S. epidermidis grown on polyethylene disks were imbedded subcutaneously into the New Zealand White rabbits and treated with the derivatives for 72 h in a modification of the method used previously (He et al. [2011]). Disks were cut from polyethylene 96-well plates (8 mm diameter, 1 mm thickness), sterilized with 75 % ethanol and placed in a Petri dish (100 mm diameter). An overnight culture of S. epidermidis ATCC 35984 (20 ml) was inoculated into the dish and incubated at 37 °C for 24 h. The disks covered with biofilms were then implanted subcutaneously in female New Zealand White rabbits (2.0–2.5 kg) that had been anesthetized with pentobarbital sodium (5 mg/kg i.v.). Four incisions (10 mm) were made on the back of the rabbit along the spine bilaterally after removal of fur, and the sub cutis was carefully dissected to form a 2-cm × 3-cm cavity. Two biofilm-covered polyethylene disks were implanted into each cavity, and to minimize the effect of between-animal variation, four different treatments were given locally to each rabbit.
Vancomycin (128 mg/l) and 0.1 % DMSO were administered as the controls. Twenty-four hours after the last treatment, the rabbits were euthanized and the implants were taken out with sterile forceps. Biofilms were scraped from the disks, and the viable bacteria were determined by CFU counting, as previously described (He et al. [2011]). All animals were housed and used in compliance with the guidelines of the Institute of Animal Care and Use Committee, and the protocol was approved by the committee.

| SMILES | MIC Antibiotic alone [1] | viability at 128 µg/mL [2] | viable bacteria recovered from implanted disks [3] |
| --- | --- | --- | --- |
| Cc1nnc(SCC2=C(C(=O)O)N3C(=O)[C@@H](NC(=O)Cn4cnnn4)[C@H]3SC2)s1 [cefazolin, reference compound] | 8 µg/mL |  |  |
| CN[C@H](CC(C)C)C(=O)N[C@H]1C(=O)N[C@@H](CC(N)=O)C(=O)N[C@H]2C(=O)N[C@H]3C(=O)N[C@H](C(=O)N[C@H](C(=O)O)c4cc(O)cc(O)c4-c4cc3ccc4O)[C@H](O)c3ccc(c(Cl)c3)Oc3cc2cc(c3O[C@@H]2O[C@H](CO)[C@@H](O)[C@H](O)[C@H]2O[C@H]2C[C@](C)(N)[C@H](O)[C@H](C)O2)Oc2ccc(cc2Cl)[C@H]1O [vancomycin, reference compound] | 4 µg/mL | 88.6% | 5.21 ± 0.24 log10 CFU/cm^2 |
